Patent US20040038958A1, “Topical treatment of skin diseases” (priority 2002, published 2004)
“Also recorded” adds a separate entry of the source.

How the values were obtained:
[1] = tested on: mice sensitized to TDI; test: Mouse ear swelling test in mice sensitized to toluene-2,4-diisocyanate (TDI), topical application; assay type: in vivo, BALB/c-mice; settings: for TDI-induced ear swelling: AWD 12-281 1%, cilomilast 3%, diflorasone 0.05%
Method: FIG. 6: Effect of PDE 4 inhibitors on TDI induced ear swelling in mice. […] After 1 h (grey bars) groups of mice were treated with 3% AWD 12-281, 10% cilomilast or left untreated (TDI). After 24 h, ear swelling was determined (black bars). […] Female BALB/c-mice were obtained from Charles River (Sulzfeld, Germany) at the age of 8 weeks (20 g body weight). All animals were healthy and were housed in groups of six mice per cage at 22° C. with a 12-h light/dark-cycle. Water and a standard diet (Altromin, […], Germany) were available ad libitum. After settling in for 1 week, the abdominal skin of the mice was shaved and depilated with Veet®. Subsequently, the horny layers of the abdominal skin were stripped off ten times with adhesive tapes. […] Before as well as 24 h after challenge, the ear thickness was measured with a cutimeter (model 7309, Mitutoyo, Neuss, Germany) The swelling was calculated by comparison of the values before challenge with 24 h after challenge. […] The other mice were equally distributed to the treatment groups (n=6) according to their swelling intensity, so that each group contained animals which had responded to varying extents. They had to rest until the ear thickness had reached almost a normal level after 7 days. To exclude residues of the allergen on the ears, the untreated right ears were used for the main experiment. One group of mice (n=6) was not sensitized and challenged. […] Two hours before TDI-challenge, the third and fourth group (each n=6) were treated with 20 μl (10 μl on both, the inner and outer surface) AWD 12-281 (1%=200 μg) or 20 μl cilomilast (3%=600 μg; each in acetone/DMSO 9:1) to the right ears. […] These mice were sacrificed by cervical dislocation 24 hours after TDI challenge and the ears were collected (see below). […] Five weeks after the first challenge, the animals treated with AWD 12-281 (1%) and cilomilast (3%) “therapeutically” were challenged again. Before challenge, one group was treated with AWD 12-281 (3%).

[2] = tested on: PDE4; settings: Griswold et al., 1998, Kuss et al., 2002; cited from earlier work

SMILES: O=C(Nc1c(Cl)cncc1Cl)C(=O)c1cn(Cc2ccc(F)cc2)c2ccc(O)cc12 [AWD 12-281, N-(3,5-Dichloro-4-pyridinyl)-2-[1-(4-fluoro-benzyl)-5-hydroxy-1 H-indol-3-yl]-2-oxoacetamide]
- Ear swelling (%) ([1]; AWD 12-281 3% topical before challenge, rechallenge five weeks after first challenge, 24 h after TDI challenge, vehicle control 51 ± 7, mean ± s.e.): 1 ± 2 %
- TDI-induced ear swelling ([1]; single topical application 2 h before TDI challenge, 1, 5 and 24 h after challenge): inhibited the TDI-induced swelling significantly at all measured times
- TDI-induced ear swelling ([1]; topical 1 h after TDI challenge (therapeutic), 24 h after challenge): reduced the inflammatory response to TDI significantly; also recorded: inhibited the TDI induced ear swelling significantly
- TDI-induced ear swelling ([1]; topical 1 h after TDI challenge (therapeutic), 24 h after challenge, listed as AWD12-281): significant inhibition of ear swelling
- TDI induced ear swelling ([1]; treated 1 h after 0.5% TDI, 3% AWD 12-281, 10% cilomilast, ear swelling after 24 h (FIG. 6)): reduced ear swelling significantly
- IC50 for PDE4 relative to cilomilast [2]: about ten times lower than that of cilomilast
